Experimental data published in article PMC11428215, “Unveiling a New Antimicrobial Peptide with Efficacy against P. aeruginosa and K. pneumoniae from Mangrove-Derived Paenibacillus thiaminolyticus NNS5-6 and Genomic Analysis” (Antibiotics, 2024).
Read-outs that look alike come from different tables or passages of the source. No end group written: not given here.

Tests used:
[1] = tested on: P. aeruginosa TISTR 357; test: Stability against temperatures, residual antibacterial activity; format: physicochemical, Pseudomonas aeruginosa; details: AMP 16 µg/mL, agar well diffusion read-out, % of non-treated AMP, mean ± SD, n = 3
Procedure: (§2) The AMP was dissolved in sterile purified water and adjusted a final concentration to 16 µg/mL. The sensitivity of the AMP to temperatures of 37, 40, 50, 60, 80, and 100 °C, as well as autoclaving at 121 °C for 15 and 30 min was evaluated. The sensitivity of the AMP to proteolytic enzymes with different digesting characteristics was studied by incubating with a concentration of 1 mg/mL of proteinase K, trypsin, and α-chymotrypsin (Sigma-Aldrich, Warren, MI, USA). The compatibility of the AMP with surfactants was evaluated by exposing the AMP to 1% SDS or 1% Triton X-100 (AppliChem GmbH, Darmstadt, Germany). The degradation of the AMP under various pH conditions, including physiological and extended alkaline conditions, was evaluated by adjusting the pH of the solution to 1.2, 4.5, 6.8, 7.4, 8.0, 10.0, 12.0, and 14.0. After incubation, the pH of the AMP solution was neutralized to the original pH before being assessed for antibacterial activity. The antibacterial assay against P. aeruginosa TISTR 357 was conducted using the agar well diffusion assay in triplicate. The stability profiles are presented as the percentage of the residual activity compared with the non-treatment conditions (mean ± SD), and statistical significance was determined by the Student’s t-test at a p-value < 0.05.

[2] = tested on: K. pneumoniae TISTR 1383; format: cell-based, Klebsiella pneumoniae; details: TISTR 1383, 24 h
Procedure: The MIC and MBC of the purified AMP were determined using the broth microdilution method following the guidance provided by the Clinical and Laboratory Standards Institute (CLSI). P. aeruginosa TISTR 357 and K. pneumoniae TISTR 1383 were cultured on MH agar and incubated at 37 °C for 18 h. A single colony of the tested bacteria was suspended in 0.85% NaCl until the suspension turbidity reached an OD of 0.1 at 625 nm. The cells were then diluted to 5 × 10^6 CFU/mL using cation-adjusted Mueller Hinton broth (CAMHB). The diluted cell suspension of 10 µL was transferred into each well of a 96-well plate with a final volume of 100 µL per well. The AMP was added to achieve final concentrations ranging from 0.125 to 64 µg/mL. Colistin was used as the positive control, while antibiotic-free samples were used as negative controls. The 96-well plate was incubated at 37 °C for 24 h. Each strain was tested in triplicate. […] Subsequently, 100 µL of each dilution was spread on MH agar and then incubated at 37 °C for 24 h. The MBC was identified as the lowest concentration at which no bacterial colony growth was observed on the agar plate.

[3] = tested on: K. pneumoniae TISTR 1383; test: Time-kill assay; format: cell-based, Klebsiella pneumoniae; details: for reduction rate of viable cells: 5 × 10^5 CFU/mL, CAMHB, 37 °C
Procedure: (§1) P. aeruginosa TISTR 357 and K. pneumoniae TISTR 1383 were separately adjusted to an initial treatment cell density of 5 × 10^5 CFU/mL with CAMHB. The experiment preparation followed the microdilution assay procedures. […] The reactions were carried out at 37 °C, followed by spreading the entire volume from each well in each treatment condition on MH agar at specific time intervals (0–24 h). The plates were placed in a 37 °C incubator for 24 h before counting the colonies. The trends in bacterial reduction were graphically depicted using a logarithmic scale of viable cells. The bacterial cell reduction was determined within 24 h. Each experiment was performed in triplicate on the 96-well plates.

[4] = tested on: P. aeruginosa TISTR 357; test: Time-kill assay; format: cell-based, Pseudomonas aeruginosa; details: for reduction rate of viable cells: from initial treatment until eradication, 5 × 10^5 CFU/mL, CAMHB, 37 °C
Procedure: as §1

[5] = tested on: P. aeruginosa TISTR 357; test: Compatibility with surfactants, residual antibacterial activity; format: physicochemical, Pseudomonas aeruginosa; details: AMP 16 µg/mL, agar well diffusion read-out, % of non-treated AMP, mean ± SD, n = 3
Procedure: as §2

[6] = tested on: K. pneumoniae TISTR 1383; test: Sytox Green uptake assay (cell membrane permeability); format: cell-based, Klebsiella pneumoniae; details: 2× MIC; Sytox Green 10 µM, over 24 h; mean ± SD, triplicate
Procedure: The cell suspension was diluted with the diluent until the OD at 625 nm was equal to 0.1 (1.5 × 10^8 CFU/mL). An aliquot of the diluted cells (100 μL) was introduced into each well and incubated with 10 μM of Sytox Green (Thermo Fisher Scientific Inc., Waltham, MA, USA) in the dark for 15 min. […] After the introduction of the AMP, the cell membrane permeability of treated bacteria was evaluated by monitoring the fluorescence intensity resulting from the penetration of Sytox Green across the compromised cell membrane and subsequently binding to nucleic acid. […] Significant differences in fluorescence intensity of overall time points were analyzed by one-way ANOVA (p-value < 0.05) and post hoc Tukey’s test for multiple comparisons between treated and non-treated conditions [52].

[7] = target: α-chymotrypsin (Bos taurus, UniProt P00766); details: α-chymotrypsin 1 mg/mL, AMP 16 µg/mL, agar well diffusion read-out, % of non-treated AMP, mean ± SD, n = 3
Procedure: as §2

Q: With VKGDGGPGTVYTM [NNS5-6 AMP] as the sequence, how does the “% Residual Activity of NNS5-6 AMP against P. aeruginosa TISTR 357” value ([1]; 40 °C, 12 h) read?
A: 99.07 ± 0.72%

Q: What about the “% Residual Activity of NNS5-6 AMP against P. aeruginosa TISTR 357” value ([1]; 50 °C, 1 h) of the same sequence?
A: 65.16 ± 3.07 %

Q: What about the “% Residual Activity of NNS5-6 AMP against P. aeruginosa TISTR 357” value ([1]; 50 °C, 6 h) of the same sequence?
A: 0.00 ± 0.00 %

Q: What about the “% Residual Activity of NNS5-6 AMP against P. aeruginosa TISTR 357” value ([1]; 50 °C, 12 h) of the same sequence?
A: 0.00 ± 0.00 %

Q: And the “% Residual Activity of NNS5-6 AMP against P. aeruginosa TISTR 357” value ([1]; 60 °C, 1 h)?
A: 0.00 ± 0.00 %

Q: What about the “% Residual Activity of NNS5-6 AMP against P. aeruginosa TISTR 357” value ([1]; 60 °C, 6 h) of the same sequence?
A: 0.00 ± 0.00 %

Q: What about the “% Residual Activity of NNS5-6 AMP against P. aeruginosa TISTR 357” value ([1]; 60 °C, 12 h) of the same sequence?
A: 0.00 ± 0.00 %

Q: And the “% Residual Activity of NNS5-6 AMP against P. aeruginosa TISTR 357” value ([1]; 80 °C, 1 h)?
A: 0.00 ± 0.00 %

Q: What about the “% Residual Activity of NNS5-6 AMP against P. aeruginosa TISTR 357” value ([1]; 80 °C, 6 h) of the same sequence?
A: 0.00 ± 0.00 %

Q: And the “% Residual Activity of NNS5-6 AMP against P. aeruginosa TISTR 357” value ([1]; 80 °C, 12 h)?
A: 0.00 ± 0.00 %

Q: What about the “% Residual Activity of NNS5-6 AMP against P. aeruginosa TISTR 357” value ([1]; 100 °C, 1 h) of the same sequence?
A: 0.00 ± 0.00 %

Q: And the “% Residual Activity of NNS5-6 AMP against P. aeruginosa TISTR 357” value ([1]; 100 °C, 6 h)?
A: 0.00 ± 0.00 %

Q: What about the “% Residual Activity of NNS5-6 AMP against P. aeruginosa TISTR 357” value ([1]; 100 °C, 12 h) of the same sequence?
A: 0.00 ± 0.00 %

Q: And the “% Residual Activity of NNS5-6 AMP against P. aeruginosa TISTR 357” value ([1]; autoclave 121 °C, 15 psi, 15 min (same value in 1 h, 6 h and 12 h))?
A: 0.00 ± 0.00 %

Q: And the “% Residual Activity of NNS5-6 AMP against P. aeruginosa TISTR 357” value ([1]; autoclave 121 °C, 15 psi, 30 min (same value in 1 h, 6 h and 12 h))?
A: 0.00 ± 0.00 %

Q: And the MBC [2]?
A: 8 µg/mL

Q: What about the MIC [2] of the same sequence?
A: 4 µg/mL

Q: What about the “reduction of viable cells” value ([3]; 1× MIC, until 24 h of treatment, growth only suppressed) of the same sequence?
A: up to 2 log (CFU/mL)

Q: And the “reduction rate of viable cells” value ([3]; 1× MIC)?
A: 0.0579 log CFU/h

Q: What about the “treatment time to eradication of viable cells” value ([3]; 2× MIC) of the same sequence?
A: ≤ 8 h

Q: What about the “reduction rate of viable cells” value ([3]; 2× MIC) of the same sequence?
A: 0.5715 log CFU/h

Q: And the “reduction rate of viable cells” value ([4]; 1× MIC)?
A: 0.6297 log CFU/h

Q: What about the “treatment time to eradication of viable cells” value ([4]; 1× and 2× MIC) of the same sequence?
A: 8 h

Q: And the “reduction rate of viable cells” value ([4]; 2× MIC)?
A: 0.6421 log CFU/h

Q: And the “% Residual Activity of NNS5-6 AMP against P. aeruginosa TISTR 357” value ([5]; with 1% SDS, 1 h)?
A: 116.77 ± 1.80 %

Q: What about the “% Residual Activity of NNS5-6 AMP against P. aeruginosa TISTR 357” value ([5]; with 1% SDS, 6 h) of the same sequence?
A: 122.52 ± 1.86 %

Q: And the “% Residual Activity of NNS5-6 AMP against P. aeruginosa TISTR 357” value ([5]; with 1% SDS, 12 h)?
A: 119.19 ± 1.53 %

Q: And the “% Residual Activity of NNS5-6 AMP against P. aeruginosa TISTR 357” value ([5]; with 1% Triton X-100, 1 h)?
A: 116.17 ± 0.60 %

Q: What about the “% Residual Activity of NNS5-6 AMP against P. aeruginosa TISTR 357” value ([5]; with 1% Triton X-100, 6 h) of the same sequence?
A: 120.28 ± 1.53 %

Q: What about the “% Residual Activity of NNS5-6 AMP against P. aeruginosa TISTR 357” value ([5]; with 1% Triton X-100, 12 h) of the same sequence?
A: 120.81 ± 1.53 %

Q: And the “fold increase in fluorescence intensity compared with non-treatment” value [6]?
A: 3.21 ± 0.29 fold

Q: What about the “% Residual Activity of NNS5-6 AMP against P. aeruginosa TISTR 357” value ([7]; 1 h) of the same sequence?
A: 99.38 ± 0.95%

Q: And the “% Residual Activity of NNS5-6 AMP against P. aeruginosa TISTR 357” value ([7]; 6 h)?
A: 99.42 ± 1.22%

Q: And the “% Residual Activity of NNS5-6 AMP against P. aeruginosa TISTR 357” value ([7]; 12 h)?
A: 98.46 ± 0.88%
